The target of series [1] is T1, ERG-ETS domain (Homo sapiens, UniProt P11308).
T1 construct: A pET28a plasmid encoding residues 307–400 of the ERG-ETS domain; His6 (cleaved yes); made in house; host or cells: E. coli BL21 (λDE3)
T1 sequence (P11308 307-400): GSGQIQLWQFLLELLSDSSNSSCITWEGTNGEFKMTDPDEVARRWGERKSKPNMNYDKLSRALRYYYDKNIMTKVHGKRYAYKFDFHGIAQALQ
Nature of the series: NMR-monitored titration (15N-HSQC) with ERG-ETS domain. The following applies: 15N-HSQC titration, 1:1 binding isotherm; pH 6.5; read-out: KD for interaction with recombinant ERG-ETS domain. The method, then:
ERG-ETS domain expression and purification. A pET28a plasmid encoding residues 307–400 of the ERG-ETS domain was expressed in E. coli BL21 (λDE3). Cultures of 1 L were grown at 37°C in M9 media supplied with 3 gm/L ^13C6-glucose and/or 1 gm/L ^15NH4Cl. Cells were allowed to grow to O.D.600 = 0.6 and protein expression was induced by adding 1 mM IPTG. After an induction time of 4 h, cells were harvested by centrifugation and stored at −80 °C for at least 1 round of freeze/thaw. Cells were resuspended in 40 mL of lysis buffer for every 1 L of culture. Cells were lysed by passing through 5 rounds of homogenization and 10 mins of sonication. The cell lysate centrifuged at 15k rpm for 1 hr, and the supernatant subjected to nickel column purification. The column was washed using 25 mM imidazole (50 mM phosphate, 1 M NaCl, pH 7.4) and proteins were eluted with 1 M imidazole. Fractions containing the ETS domain were confirmed by SDS-PAGE and pooled. […] NMR data were recorded at 25 or 28°C on cryoprobe-equipped 850 MHz Bruker Avance III spectrometer. Data were processed and analyzed using NMRpipe and Sparky. […] NMR-monitored titrations. Interactions of compounds with the ERG-ETS domain were monitored via sensitivity-enhanced ^15N-HSQC spectra. […] Chemical shift perturbations were calculated from the combined amide ^1H^N and ^15N shift changes as Δδ = [(0.2 × ΔδN)^2 + (ΔδH)^2]^1/2. […]

Series [2] deals with RWPE-ERG cells. Nature of the series: Real time cell migration (xCELLigence), RWPE-ERG. Type of series: cell-based. The note with it: 5 µM; compared to MOCK control. The method, then:
Cell migration was monitored using CIM-16 migration plates via the xCELLigence platform (ACEA). FBS-supplemented media (160 μL) was added to the lower chamber of the plate and incubated at RT for 30 min. The upper chamber was then mounted and 30 μL of serum free media (SFM) was added to each well and left to equilibrate in the incubator for 1 h at 37°C. After the incubation, a background reading was taken for each well. […] Real time readings of cell index values were recorded initially every 5 min until the end of the experiment (48 hr). page 8: Supplementary Figure 4: VPC-18005 suppresses migration, but not growth of RWPE-1-ERG cells. (A) Cell viability (MTS) of ERG-expressing cells (RWPE-ERG) (closed circle) and non-ERG expressing cells (RWPE-MOCK (open square)) after treatment […] Impact on viability is presented as the mean ± SEM […] (B) RWPE-1-Mock or (C) […] The normalized cell index is a measure of the migration of the cells through the pores of the upper chamber and is used as the migration index. Dotted lines represent 1 standard deviation (SD) of the mean migration rate.

The target of series [3] is T2, ERG-DNA complex (Homo sapiens, UniProt P11308).
T2 construct: VCaP (endogenous overexpression); endogenous in cells; host or cells: VCaP (whole cells for A2 and A17; nuclear extract for A16)
T2 sequence (P11308 33-479 limits assumed): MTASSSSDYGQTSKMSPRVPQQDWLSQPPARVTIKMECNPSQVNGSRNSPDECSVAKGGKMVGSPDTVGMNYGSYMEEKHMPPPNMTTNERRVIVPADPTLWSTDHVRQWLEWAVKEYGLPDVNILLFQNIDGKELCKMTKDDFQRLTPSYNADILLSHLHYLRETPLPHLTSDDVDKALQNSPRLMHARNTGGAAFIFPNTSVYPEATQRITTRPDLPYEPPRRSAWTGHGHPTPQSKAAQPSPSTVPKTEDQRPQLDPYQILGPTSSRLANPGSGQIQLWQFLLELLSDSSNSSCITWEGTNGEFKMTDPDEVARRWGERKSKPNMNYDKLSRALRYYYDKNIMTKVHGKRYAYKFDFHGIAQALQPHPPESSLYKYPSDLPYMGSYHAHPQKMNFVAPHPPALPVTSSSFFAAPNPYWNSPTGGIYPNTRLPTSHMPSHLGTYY
Briefly: EMSA with VCaP nuclear lysate. Type of series: binding. The note with it: 55 ng/μl nuclear extract, 4 μM to 8 mM. As to the method:
For experiments involving ERG from VCaP cells, VCaP nuclear protein was extracted using CelLytic NuCLEAR Extraction Kit (Sigma). […] For subsequent assays, 55 ng/μl of the nuclear extract was mixed with 1 nM of fluorophore-labeled dsDNA, titrated with VPC-18005 (diluted from a DMSO stock) and analyzed by the same EMSA protocol.
On the technique in general: Mobility shift assays separate free from complexed probe on a gel.

Series [4] has as its system PC3 cells. Also noted: method as in PMID 21559405. The note with it: read-out: IC50 for cytotoxicity in PC3 cells; cited from earlier work.

The values that follow come from paper PMC5522078, “Discovery and characterization of small molecules targeting the DNA-binding ETS domain of ERG in prostate cancer” (Oncotarget, 2017).

By Kd is commonly meant the equilibrium constant for the complex coming apart. As to `CC(C)c1ccc(C=N/N=C2\NC(=O)[C@@H](CC(=O)O)S2)cc1` (stereo in doubt) [VPC-18005, 2-((Z)-2-(((Z)-4-isopropylbenzylidene)hydrazono)-4-oxothiazolidin-5-yl)acetic acid], the Kd in series [1] is around 3 mM. Further, in series [2], the “Effect on RWPE-ERG cell migration” value is on record as “moderate effect”. The “Disruption of ERG-DNA complex formation, VCaP nuclear lysate” value in series [3] was “disrupted ERG-DNA complex formation”.
A word on the IC50: it is the concentration needed to halve the response being measured. With `COc1ccc(C(=O)CC2(O)C(=O)Nc3c(Cl)ccc(Cl)c32)cc1` (stereo not shown) [YK-4-279, reference compound], the IC50 in series [4] is above 0.1 mM.
